The structures appear in SMILES notation.

What all share (assay): normalised response (% of control), CellTox Green; higher = less cell death (100 = DMSO, 0 = benzethonium chloride kill control)
Common to all, as to conditions: incubation time: 72 h

The subject of one experiment is CAL-148. In outline:
(§1)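 Plates were normalised with 0.1 % DMSO as 100 and a positive kill control as 0. Breast cancer cell lines in 20 µl suspension had been seeded into 384-well plates with compound at 5 concentrations in 10-fold steps over a compound-specific 10,000-fold range, incubated 72 h, and read for CellTox Green fluorescence (485/520 nm) followed by CellTiter-Glo luminescence. Each value is the normalised signal at a single concentration.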

The subject of a further experiment is CAL-51. Summed up: as §1
The test system of a further experiment is CAL-85-1. Summed up: as §1
In a further experiment the test system is DU-4475. In outline: as §1
The subject of a further experiment is HCC1143. In outline: as §1
Another experiment deals with HCC1599. In outline: as §1
In a further experiment the test system is Hs578T. Summed up:
as §1

The subject of the next experiment is MCF-10A. In outline:
as §1

The subject of the next experiment is MDA-MB-436. In outline: as §1
For a further experiment, the system named is MDA-MB-453. Summed up:
as §1

A further experiment deals with MFM-223. Summed up:
as §1

As for `Cn1c(=O)c(F)c(Nc2ccc(I)cc2F)c2c(=O)n(C[C@@H](O)CO)cnc21` [TAK-733] (1000 nM), the normalised response was found to be 98.7% in the experiment with CAL-148; 105% in the experiment on CAL-51; 41% in the experiment on CAL-85-1; 70.7% in the experiment on DU-4475; 128% in the experiment on HCC1143; 113% in the experiment on HCC1599. For the same compound, the normalised response was determined as 38% in the experiment on Hs578T; 110% in the experiment with MCF-10A; 97.9% with MDA-MB-436; 109% in the experiment on MDA-MB-453; 104% with MFM-223.

In the case of `COc1cccc2c1C(=O)c1c(O)c3c(c(O)c1C2=O)C[C@@](O)(C(C)=O)C[C@@H]3O[C@H]1C[C@H](N)[C@H](O)[C@H](C)O1` [Daunorubicin] (100 nM), the normalised response is -17.1% with CAL-148; 73.5% with CAL-51; 102% in the experiment with CAL-85-1; 100% in the experiment with DU-4475; 75.9% in the experiment with HCC1143; 102% in the experiment on HCC1599. Moreover, the normalised response came to 90.7% in the experiment with Hs578T; 106% with MCF-10A; 98.2% in the experiment with MDA-MB-436; 110% in the experiment on MDA-MB-453; 99.6% in the experiment on MFM-223.

`O=C(c1ccc(OCCN2CCCCC2)cc1)c1c(-c2ccc(O)cc2)sc2cc(O)ccc12` [Raloxifene] (1000 nM): the normalised response in the experiment with CAL-148 was 92%; with CAL-51 it was 121%; in the experiment on CAL-85-1 it was 98.6%; with DU-4475 it was 104%; in the experiment on HCC1143, 119%; with HCC1599, 102%. Moreover, the normalised response in the experiment on Hs578T was 105%; with MCF-10A, 104%; with MDA-MB-436, 107%; in the experiment with MDA-MB-453, 103%.

For the compound `C#Cc1cccc(Nc2ncnc3cc(OC)c(OCCCCCCC(=O)NO)cc23)c1` [CUDC-101] (10000 nM), the normalised response was -3.26% in the experiment on CAL-148; 4.75% with CAL-51; -59% in the experiment on CAL-85-1; 82.4% in the experiment with DU-4475; 91.9% in the experiment with HCC1143; 79.8% with HCC1599. Moreover, the normalised response turned out to be 29.1% in the experiment on Hs578T; 48.6% in the experiment on MCF-10A; 57.5% with MDA-MB-436; 83.7% with MDA-MB-453; 36.9% with MFM-223.

Take `CC(=O)O[C@H]1C(=O)[C@@]2(C)[C@H]([C@H](OC(=O)c3ccccc3)[C@]3(O)C[C@H](OC(=O)[C@H](O)[C@@H](NC(=O)c4ccccc4)c4ccccc4)C(C)=C1C3(C)C)[C@]1(OC(C)=O)CO[C@@H]1C[C@@H]2O` [Paclitaxel] (1000 nM): the normalised response with CAL-148 is 86.3%; with CAL-51, 38.7%; with CAL-85-1, 41.7%; in the experiment on DU-4475 it was 95.4%; in the experiment on HCC1143, 87.3%; with HCC1599 it was 86.6%. For the same compound, the normalised response amounted to 18.5% in the experiment with Hs578T; 1.34% in the experiment on MCF-10A; 49.4% in the experiment with MDA-MB-436; 92.1% in the experiment on MDA-MB-453; 58.8% in the experiment on MFM-223.

For the compound `Cn1cnc2c(F)c(Nc3ccc(Br)cc3F)c(C(=O)NOCCO)cc21` [MEK-162] (100 nM), the normalised response in the experiment with CAL-148 is 98.4%; in the experiment on CAL-51 it was 103%; in the experiment with CAL-85-1, 98.2%; in the experiment on DU-4475, 87.3%; in the experiment with HCC1143, 115%; with HCC1599, 90.6%. The normalised response in the experiment with Hs578T turned out to be 76.4%; in the experiment with MCF-10A, 104%; in the experiment on MDA-MB-436, 105%; with MDA-MB-453 it was 106%; with MFM-223, 91.5%.

For the compound `CS(=O)(=O)OCCCCOS(C)(=O)=O` [Busulfan] (10000 nM), the normalised response in the experiment on CAL-148 was determined as 106%; with CAL-51, 113%; in the experiment with CAL-85-1, 103%; with DU-4475, 102%; in the experiment on HCC1143 it was 121%; in the experiment on HCC1599 it was 82%. The normalised response came to 94.5% with Hs578T; 104% with MCF-10A; 74% with MDA-MB-436; 103% with MDA-MB-453; 97.1% with MFM-223.

Consider `CC(C)C[C@H](NC(=O)[C@H](Cc1ccccc1)NC(=O)c1cnccn1)B(O)O` [Bortezomib] (1000 nM), for which the normalised response is 38% in the experiment on CAL-148; 15.4% in the experiment with CAL-51; -48% with CAL-85-1; 76.1% with DU-4475; 27.3% in the experiment on HCC1143; 81.6% with HCC1599. For the same compound, the normalised response came out at 39.2% in the experiment on Hs578T; 15.3% in the experiment with MCF-10A; 6.1% with MDA-MB-436; 70.9% in the experiment with MDA-MB-453; 53.7% in the experiment with MFM-223.

Take `COC1=CC(c2cc3ccccc3[nH]2)=N/C1=C\c1[nH]c(C)cc1C` [Obatoclax] (1000 nM): the normalised response amounted to 105% in the experiment on CAL-148; 100% in the experiment on CAL-51; 101% in the experiment on CAL-85-1; 98.1% in the experiment on DU-4475; 105% with HCC1143; 100% in the experiment on HCC1599. Further, the normalised response in the experiment on Hs578T was determined as 107%; in the experiment with MCF-10A it was 70.1%; in the experiment on MDA-MB-436, 91.5%; with MDA-MB-453 it was 105%; in the experiment on MFM-223, 102%.

With `C[C@@]1(C(=O)Nc2ccc(F)nc2)CCCN1c1nc(Nc2cc(C3CC3)n[nH]2)c2cccn2n1` (10000 nM), the normalised response in the experiment on CAL-148 was 59.1%; in the experiment on CAL-51, 18.7%; with CAL-85-1, 67.8%; with DU-4475, 90.2%; with HCC1143 it was -57.9%; in the experiment with HCC1599, 90.1%. The normalised response was 82.1% with Hs578T; 25.8% in the experiment with MCF-10A; 90.4% in the experiment on MDA-MB-436; 109% in the experiment with MDA-MB-453; 71.2% in the experiment on MFM-223.

`COc1c(C)cnc(Cn2cnc3c(Cl)nc(N)nc32)c1C` [BIIB021] (10000 nM): the normalised response in the experiment on CAL-148 is 49.2%; in the experiment on CAL-51, 58.2%; in the experiment on CAL-85-1 it was 39%; in the experiment with DU-4475 it was 80.3%; in the experiment with HCC1143, 126%; in the experiment on HCC1599 it was 113%. Also, the normalised response with Hs578T worked out at 89.7%; in the experiment with MCF-10A, 52.8%; in the experiment on MDA-MB-436, 106%; in the experiment on MDA-MB-453, 93.5%; with MFM-223, 93.4%.

With `COc1ccc(C2=N[C@@H](c3ccc(Cl)cc3)[C@@H](c3ccc(Cl)cc3)N2C(=O)N2CCNC(=O)C2)c(OC(C)C)c1` [Nutlin-3] (10000 nM), the normalised response was 43.8% with CAL-148; 41.2% with CAL-51; 80.3% in the experiment with CAL-85-1; 91% in the experiment with DU-4475; 105% with HCC1143; 101% in the experiment on HCC1599. Also, the normalised response in the experiment on Hs578T stood at 115%; with MCF-10A it was 101%; with MDA-MB-436, 95%; with MDA-MB-453, 92.3%; with MFM-223, 96.4%.

For `COc1ncc(-c2ccc3nccc(-c4ccnnc4)c3c2)cc1NS(=O)(=O)c1ccc(F)cc1F` (1000 nM), the normalised response was 45% in the experiment with CAL-148; 46.1% with CAL-51; 52.1% in the experiment on CAL-85-1; 83.9% in the experiment on DU-4475; 107% in the experiment with HCC1143; 88.6% in the experiment on HCC1599. Also, the normalised response was 35.8% in the experiment on Hs578T; 73.1% in the experiment with MCF-10A; 104% in the experiment on MDA-MB-436; 73.4% in the experiment on MDA-MB-453; 78.7% in the experiment with MFM-223.
